From patent US20260049078A1, “DIFLUORO- AND TRIFLUORO-ACETYL HYDRAZIDES AS SELECTIVE HDAC6 INHIBITORS” (ITALFARMACO S.P.A., priority 2022, published 2026)
Read-outs that look alike come from different tables or passages of the source.

Key:
[1] = system: human B cell precursor leukemia 697; assay: In vitro α-tubulin acetylation in 697 cell line; assay type: cell-based; details: read-out: TubAc 697 cells EC50
Description: The in vitro α-tubulin acetylation was evaluated on human B cell precursor leukemia 697.
The 697 cells were maintained in RPMI Medium 1640 (Gibco, cat: 21875-034) supplemented with 10 mM HEPES (Gibco, cat: 15630-080), Pen-Strep (Penicillin 100 U/ml, Streptomycin 100 μg/ml, Gibco, cat: 15140-122) and 10% fetal bovine serum (Gibco, cat: 10270-106).
The cells were plated in 12-well plates (Costar, cat: 3512) at the density of 5.5×10^5 cells/ml.
Serial dilutions of test compounds in DMSO were prepared using 20 mM stock solutions to obtain 8 doses 200× concentrated in respect to final doses (2.7-100000 nM). Then the DMSO solutions were diluted 10× in culture medium to obtain 20× concentrated solutions which were used for cells treatment (125 μl of medium solutions were added to 2.375 ml of cells suspension). The final DMSO content was set as 0.5%. The plates were incubated at 37° C., 5% CO2 for 16 hours.
At the end of the incubation period, the cells were harvested and centrifuged for 5 minutes at 200×g and washed with 0.9% NaCl at 4° C. The resulting pellet was treated for 30 minutes at 4° C. with 100 μl Complete Lysis-M buffer containing protease inhibitors (Complete Lysis-M Roche+Complete Tablets, Mini Easypack, cat: 4719956001) and phosphatase inhibitor cocktails (PhosStop Easypack, Roche, cat: 4906837001) and then centrifuged 10 minutes at 18213×g. The protein concentration in each supernatant was determined using BCA Protein Assay Kit (Pierce, cat: 23227). The samples were diluted in PBS 1× to obtain 2 μg/ml concentration and coated in MaxiSorp 96-well plates (Nunc, cat: 442404). The plates were incubated overnight at room temperature.
Plates were washed twice with Wash Buffer (PBS 1×+0.005% tween 20) and saturated for 1 hour at room temperature with 300 μL of 1×PBS containing 10% FBS. After washing twice with Wash Buffer, the plates were incubated for 2 hours at room temperature in the presence of 100 μl/well either anti-acetylated-α-tubulin antibody (Monoclonal Anti-Tubulin, Acetylated antibody produced in mouse, Sigma-Aldrich, cat: T6793) or total anti-α-tubulin antibody (Monoclonal Anti-α-Tubulin produced in mouse, Sigma-Aldrich, cat: T6074) diluted 1:1000 in 1×PBS containing 10% FBS. Following 5 washing cycles with Wash Buffer the secondary antibody conjugated with the enzyme HRP (Goat anti-Mouse IgG, IgM, IgA (H+L), stock concentration 0.5 mg/ml, Thermo Fisher Scientific, cat: A10668), diluted 1:1000 in 1×PBS+10% FBS was added at the volume of 100 μl/well. After two hours of incubation at room temperature the plates were washed 4 times with Wash Buffer, then 100 μl/well of TMB substrate (TMB substrate kit, Thermo Fisher Scientific, cat: 34021) was added for 10 minutes at room temperature in the dark. The reaction was stopped by adding 50 μl of 2M H2SO4. The plates were read in BioTek Synergy H1 multimode microplate reader at a wavelength of 450 nm.
The measured absorbance was corrected by subtracting the mean of blank values (samples without the primary antibody). The absorbance ratios of acetyl to total tubulin assays were calculated and normalized to the reference compound (positive control) 4 parameter logistic curve, where 0% is the fitted bottom and 100% is the fitted top of the curve. The results are expressed as relative EC50.

[2] = molecular target: recombinant human HDAC6 (Homo sapiens (Human), UniProt Q9UBN7); assay: Enzyme inhibitory activity assay on HDAC6; assay type: biochemical; details: 30 minutes preincubation at 25° C.
Description: For each test compound, 100× concentrated DMSO solutions at 8 doses were prepared and then diluted in assay buffer (25 mM Tris-HCl, pH 8, 130 mM NaCl, 0.05% Tween-20, 10% Glycerol) to obtain 5× concentrated solutions in relation to the final concentrations (typical final concentration range—6.4-200000 nM or 0.18-50000 nM, final DMSO content—1%). Then 10 μL solution of each test compound concentration were placed on a 96-well plate in triplicate and 15 μL of 3.33× concentrated enzyme solution in the assay buffer containing 3.33× concentrated BSA (final BSA concentration 1 mg/mL) and, in case of HDAC6, 3.33× concentrated TCEP (final TCEP concentration—200 μM) were added to each well. After a period of preincubation at 25° C. (30 minutes for HDAC6 and 120 minutes for HDAC1), 25 μL of solution containing the substrate were added. As substrate, FLUOR DE LYS® deacetylase substrate (Enzo Life Sciences, cat: BML-KI104, FdL), FLUOR DE LYS®-Green substrate (Enzo Life Sciences, cat: BML-KI572, FdL_G) or Boc-Lys(Tfa)-AMC (Bachem, cat: 4060676.005, Tfal)—2× concentrated solution in assay buffer were used. Following a reaction period (30 minutes at 25° C.), 50 μL of the development solution consisting of concentrate FLUOR DE LYS® developer I (Enzo Life Sciences, ca: BML-KI105), diluted 200 times in buffer (50 mM Tris-HCl, pH 8, 137 mM NaCl, 2.7 mM KCl, 1 mM MgCl2) plus 2 μM TSA was added and, after 25 minutes at room temperature in the dark, using the Victor 1420 Multilabel Counter Perkin Elmer Wallac instrument, the fluorescence reading was carried out (excitation/emission: 485/535 nM—Fluor de Lys Green, 355/460 nM—Tfal, Fluor de Lys).
Enzymatic activity on recombinant human HDAC6 and HDAC1 was evaluated (Table 2) for each synthesized compound.

Sequence of recombinant human HDAC6 (Q9UBN7 whole entry): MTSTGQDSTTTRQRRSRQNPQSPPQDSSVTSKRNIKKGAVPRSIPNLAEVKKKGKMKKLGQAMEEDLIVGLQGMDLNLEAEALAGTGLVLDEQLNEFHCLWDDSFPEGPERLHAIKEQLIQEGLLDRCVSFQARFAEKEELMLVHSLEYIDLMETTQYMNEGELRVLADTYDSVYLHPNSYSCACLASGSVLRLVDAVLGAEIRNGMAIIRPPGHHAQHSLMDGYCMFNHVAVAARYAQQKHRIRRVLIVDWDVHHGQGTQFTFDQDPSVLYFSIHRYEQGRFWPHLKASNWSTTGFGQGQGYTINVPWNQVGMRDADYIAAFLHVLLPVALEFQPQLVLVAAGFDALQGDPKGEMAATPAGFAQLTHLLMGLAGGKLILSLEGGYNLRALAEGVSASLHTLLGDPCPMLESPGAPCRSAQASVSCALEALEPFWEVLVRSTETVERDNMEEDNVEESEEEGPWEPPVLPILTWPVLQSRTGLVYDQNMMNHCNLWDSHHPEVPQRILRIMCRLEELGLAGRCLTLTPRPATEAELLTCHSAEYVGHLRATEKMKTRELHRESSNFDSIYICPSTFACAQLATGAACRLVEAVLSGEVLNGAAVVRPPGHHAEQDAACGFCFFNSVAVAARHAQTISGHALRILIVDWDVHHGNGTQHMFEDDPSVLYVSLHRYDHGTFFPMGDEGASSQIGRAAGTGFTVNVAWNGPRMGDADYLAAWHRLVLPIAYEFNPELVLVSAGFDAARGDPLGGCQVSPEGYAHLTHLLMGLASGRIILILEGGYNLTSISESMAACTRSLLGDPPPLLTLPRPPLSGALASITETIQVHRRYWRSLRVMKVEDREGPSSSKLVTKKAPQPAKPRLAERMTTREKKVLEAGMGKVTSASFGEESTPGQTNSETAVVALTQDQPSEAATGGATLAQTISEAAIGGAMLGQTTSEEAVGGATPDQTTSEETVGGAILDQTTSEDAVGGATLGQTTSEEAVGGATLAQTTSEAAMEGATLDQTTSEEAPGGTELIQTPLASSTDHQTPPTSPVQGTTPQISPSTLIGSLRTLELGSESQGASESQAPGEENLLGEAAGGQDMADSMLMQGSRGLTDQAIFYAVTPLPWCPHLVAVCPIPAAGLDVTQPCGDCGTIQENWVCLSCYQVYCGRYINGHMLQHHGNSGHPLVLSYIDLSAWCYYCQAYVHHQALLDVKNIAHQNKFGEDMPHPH

| EC50 ([1]; Homo sapiens, B-cell, 16 h) [µM] | IC50 [2] [µM] | EC50 ([1]; 697 cells, 16 hours, relative EC50) [µM] | Structure (SMILES) |
| --- | --- | --- | --- |
| 0.13 | – | – | Nc1nc2ccc(-c3cn(Cc4ccc(-c5nnc(C(F)F)o5)cc4F)nn3)cc2s1 [Compound 2-A] |
| 0.476 | 0.022 | – | Fc1ccccc1-c1cn(Cc2ccc(-c3nnc(C(F)F)o3)cn2)nn1 [Compound 14-A] |
| 0.085 | 0.026 | – | Nc1nc2ccc(-c3cn(Cc4ccc(-c5nnc(C(F)F)o5)cc4)nn3)cc2s1 [Compound 32-A] |
| 0.065 | 0.061 | – | Nc1nc2ccc(-c3cn(Cc4ccc(-c5nnc(C(F)F)o5)cc4Cl)nn3)cc2s1 [Compound 37-A] |
| 0.076 | 0.008 | – | Nc1nc2ccc(-c3cn(Cc4ccc(-c5nnc(C(F)F)o5)cn4)nn3)cc2s1 [Compound 38-A] |

Further lines, the compound ahead of its results:

| Structure (SMILES) | EC50 ([1]; Homo sapiens, B-cell, 16 h) [µM] | IC50 [2] [µM] | EC50 ([1]; 697 cells, 16 hours, relative EC50) [µM] |
| --- | --- | --- | --- |
| FC(F)c1nnc(-c2ccc(Cn3cc(-c4ccc(NC5=NCCN5)cc4)nn3)cc2)o1 [Compound 1-A] | 0.585 | 0.014 | – |
| FC(F)c1nnc(-c2ccc(Cn3cc(-c4ccccc4)nn3)nc2)o1 [Compound 13-A] | 0.505 | 0.032 | – |
| FC(F)c1nnc(-c2ccc(Cn3cc(-c4ccccn4)nn3)nc2)o1 [Compound 20-A] | 1.21 | 0.06 | – |
| Nc1nc2ccc(C3CN(Cc4ccc(C(=O)NNC(=O)C(F)F)s4)N=N3)cc2s1 (centres unmarked) [Compound 48-A] | – | 0.007 | 0.0075 |
